From patent US8168677B2, “Method for treatment of inflammatory bowel disease” (Kemphys Ltd., priority 2005, dated 2012) come the findings set out here.

Structures are written as SMILES. “And” between values parts separate entries of the source, which are not always exact repeats. Equal values may be shown once.

The subject of experiment [1] is model rat of inflammatory bowel disease (DNBS instilled intracolonically). In words: Evaluation of Am80 using DNBS-induced model rat of inflammatory bowel disease (Example 1). In kind it is in vivo, Wistar rats. The following applies: for Presence or Absence of Adhesion (in five rats per group): number of animals with adhesion. On the procedure:
Male or female Wistar rats weighing 200±5 g were used to create an animal model of inflammatory bowel disease. After the animals were fasted for 24 hours, DNBS (2,4-Dinotrobenzenesulfonic Acid, 30 mg in 0.5 ml 30% ethanol) was instilled intracolonically through the anus. Each of 4-[(5,6,7,8-tetrahydro-5,5,8,8-tetramethyl-2-naphthalenyl)carbamoyl]benzoic acid (Am80, generic name: Tamibarotene) as the medicament of the present invention so as to be a dose at 0.3 mg/kg, and salazosulfapyridine (SASP), a commercially available drug for ulcerative colitis, as a comparative example (positive control drug) so as to be a dose at 300 mg/kg was administered 24 hours before and 2 hours before the DNBS infusion, and once daily for 5 days after 24 hours from the infusion. Tamibarotene or SASP was each administered orally as a suspension in 0.5% carboxymethylcellulose. For the control group, the solvent was administered orally according to the same schedule as that for SASP. The animals were subjected to anatomic examination 24 hours after the final administration, and a degree of bowel inflammation was observed. For each of the Tamibarotene-administered group, SASP-administered group, the normal group, and the control group, five rats were used.
(§1) The results are indicated as the scores of bowel inflammation (average), weight of the bowel per unit body weight (100 g body weight) (average±standard error), and the number of animals in each group that gave adhesion. The scoring of bowel inflammation were conducted by visual observation according to the method of judgment described in the reference (Am. J. Physiol., 258: G527-34, 1990). • Score of Bowel Ulceration and Inflammation (Macroscopic) • Score: observation • 0: Normal; • 1: Localized hyperemia, no ulcers; • 2: Ulceration without hyperemia or colonic wall thickening; • 3: Inflammation and ulceration at one site; • 4: Ulcers and Inflammations at two or more sites; • 5: A major damaged site extending in 1 cm or longer along the direction of the colon length; and • 6-10: When a major damaged site extends in 2 cm or longer along the direction of the colon length, a score is increased by one for each additional 1 cm over 2 cm.

The subject of experiment [2] is rat model of inflammatory bowel disease (DNBS instilled intracolonically). In words: Evaluation of retinoids which bind to RAR and RXR using DNBS-induced rat model of inflammatory bowel disease (Example 2). In kind it is in vivo, Wistar rats. The note with it: for Bowel Inflammation Score [average]: 24 h and 2 h before DNBS and once daily for 5 days, macroscopic score 0-10, N = 5; for Presence or Absence of Adhesion (in five rats per group): number of animals with adhesion. On the procedure:
Male or female Wistar rats weighing 200±5 g were used to create an animal model of inflammatory bowel disease. After the animals were fasted for 24 hours, DNBS (2,4-Dinotrobenzenesulfonic Acid, 30 mg in 0.5 ml 30% ethanol) was instilled intracolonically through the anus. As the medicaments of the present invention, 4-[2,3-(2,5-dimethyl-2,5-hexano)dibenzo[b,f][1,4]thiazepin-11-yl] benzoic acid (HX630) at 3 mg/kg, 4-(5H-7,8,9,10-tetrahydro-5,7,7,10,10-pentamethylbenzo[e]naphtho[2,3-b][1,4]diazepin-13-yl)benzoic acid (LE135) at 5 mg/kg, or a combination of 0.1 mg/kg of Am80 and 3 mg/kg of HX630 were used, and as a comparative example (positive control drug), 300mg/kg of salazosulfapyridine (SASP) as a commercially available drug for ulcerative colitis was used, and each drug was administered 24 hours before and 2 hours before the DNBS infusion, and once daily for 5 days after 24 hours from the infusion. Each drug was administered orally as a suspension in 0.5% carboxymethylcellulose. For the control group, the solvent was administered orally according to the same schedule. The animals were subjected to anatomic examination 24 hours after the final administration, and a degree of bowel inflammation was observed. For each of the Tamibarotene-administered group, SASP-administered group, the normal group, and the control group, five rats were used.
as §1, with “the colon” for “the bowel”

As to `O=C(O)c1cc(/N=N/c2ccc(S(=O)(=O)Nc3ccccn3)cc2)ccc1O` [SASP, salazosulfapyridine], in experiment [1] (SASP 300 mg/kg oral, 24 h and 2 h before DNBS and once daily for 5 days, macroscopic score 0-10, N = 5), the “Bowel Inflammation Score [average]” value was 2. Also, in experiment [1] (SASP 300 mg/kg oral, average ± standard error, N = 5), the “Colon weight/100 g body weight [average]” value was 0.682 ± 0.023. The “Presence or Absence of Adhesion (in five rats per group)” value in experiment [1] (SASP 300 mg/kg oral) was 2/5.

`CN1c2cc3c(cc2N=C(c2ccc(C(=O)O)cc2)c2ccccc21)C(C)(C)CCC3(C)C` [LE135, 4-(5H-7,8,9,10-tetrahydro-5,7,7,10,10-pentamethylbenzo[e]naphtho[2,3-b][1,4]diazepin-13-yl)benzoic acid]: in experiment [2] (LE135 5 mg/kg oral), the “Bowel Inflammation Score [average]” value is on record as 2.4 and the “Presence or Absence of Adhesion (in five rats per group)” value is listed as 0/5.

With `CC1(C)CCC(C)(C)c2cc(NC(=O)c3ccc(C(=O)O)cc3)ccc21` [Tamibarotene, 4-[(5,6,7,8-tetrahydro-5,5,8,8-tetramethyl-2-naphthalenyl)carbamoyl]benzoic acid], the “Presence or Absence of Adhesion (in five rats per group)” value in experiment [1] (Tamibarotene 0.3 mg/kg oral) is “significantly suppressed and 0/5”.

For the compound `CC1(C)CCC(C)(C)c2cc3c(cc21)Sc1ccccc1N=C3c1ccc(C(=O)O)cc1` [HX630, 4-[2,3-(2,5-dimethyl-2,5-hexano)dibenzo[b,f][1,4]thiazepin-11-yl] benzoic acid], in experiment [2] (HX630 3 mg/kg oral), the “Bowel Inflammation Score [average]” value is reported as 3.4 and the “Presence or Absence of Adhesion (in five rats per group)” value is 1/5.
